In PMC3784351 (Cancer chemotherapy and pharmacology, 2013):

T1: proton-coupled folate transporter (PCFT) (Homo sapiens, UniProt Q96NT5)
T1 sequence (Q96NT5 1-459): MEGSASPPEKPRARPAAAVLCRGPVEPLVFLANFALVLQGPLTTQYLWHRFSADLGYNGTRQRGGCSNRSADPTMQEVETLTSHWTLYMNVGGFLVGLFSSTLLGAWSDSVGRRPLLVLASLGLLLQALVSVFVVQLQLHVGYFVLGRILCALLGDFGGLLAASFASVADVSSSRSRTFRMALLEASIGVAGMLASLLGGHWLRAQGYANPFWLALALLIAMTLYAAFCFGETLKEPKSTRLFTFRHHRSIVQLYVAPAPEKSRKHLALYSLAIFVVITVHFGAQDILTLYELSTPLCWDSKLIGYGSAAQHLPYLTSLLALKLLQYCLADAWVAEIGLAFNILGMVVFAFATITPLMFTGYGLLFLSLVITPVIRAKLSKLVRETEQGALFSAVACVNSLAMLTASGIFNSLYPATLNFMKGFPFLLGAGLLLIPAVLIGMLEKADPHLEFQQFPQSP

B1: reduced folate carrier (RFC) (Homo sapiens) (protein)
chain: MVPSSPAVEKQVPVEPGPDPELRSWRHLVCYLCFYGFMAQIRPGESFITPYLLGPDKNFTREQVTNEITPVLSYSYLAVLVPVFLLTDYLRYTPVLLLQGLSFVSVWLLLLLGHSVAHMQLMELFYSVTMAARIAYSSYIFSLVRPARYQRVAGYSRAAVLLGVFTSSVLGQLLVTVGRVSFSTLNYISLAFLTFSVVLALFLKRPKRSLFFNRDDRGRCETSASELERMNPGPGGKLGHALRVACGDSVLARMLRELGDSLRRPQLRLWSLWWVFNSAGYYLVVYYVHILWNEVDPTTNSARVYNGAADAASTLLGAITSFAAGFVKIRWARWSKLLIAGVTATQAGLVFLLAHTRHPSSIWLCYAAFVLFRGSYQFLVPIATFQIASSLSKELCALVFGVNTFFATIVKTIITFIVSDVRGLGLPVRKQFQLYSVYFLILSIIYFLGAMLDGLRHCQRGHHPRQPPAQGLRSAAEEKAAQALSVQDKGLGGLQPAQSPPLSPEDSLGAVGPASLEQRQSDPYLAQAPAPQAAEFLSPVTTPSPCTLCSAQASGPEAADETCPQLAVHPPGVSKLGLQCLPSDGVQNVNQ

Columns and labels:
[1] = molecular target: T1, proton-coupled folate transporter (PCFT); assay: tritiated influx in HeLa R1-PCFT versus R1-11 cells; assay type: cell-based
[2] = substrate: C#CCC(Cc1cnc2nc(N)nc(N)c2n1)c1ccc(C(=O)N[C@@H](CCC(=O)O)C(=O)O)cc1; assay: cells, lysate or membranes; details: pH 7.4

| Molecule | tritiated influx in HeLa R1-PCFT versus R1-11 cells (poor substrate) [1] | Km [2] |
| --- | --- | --- |
| C#CCC(Cc1cnc2nc(N)nc(N)c2n1)c1ccc(C(=O)N[C@@H](CCC(=O)O)C(=O)O)cc1 (some centres unmarked) [pralatrexate] | among the antifolates tested, pralatrexate was the poorest substrate for PCFT | – |
| B1 | – | 0.52 ± 0.2 µM |
